According to US9226913B2, “Methods of treating cancer using a combination of an immunomodulatory compound and an artemisinin or a derivative thereof” (Celgene Corporation, priority 2010, dated 2016):
Like-named read-outs stand apart in the source and are kept apart here.

Columns and labels:
HCT116^poly cells = test: MTT proliferation assay, 72 hr (Example 6.2); type: cell-based, human; conditions: HCT116^poly (polyploid extended-passage variant)
Experimental: (§1) To study the effect of each agent on cell growth, cells growing exponentially were added to 96-well plates at a density of 3×10^4/well. Drugs (0.1-100 μM) were then added to the wells, ensuring an equal volume of 200 μl across the plate. Cell number was measured at 72 hr using a standard methylthiazoletetrazolium (MTT)-based assay without modifications as described previously (Gordi et al., 2004, Toxicol. Lett. 147: 99-107). Briefly, MTT (Sigma) was added to each well to give a working concentration of 0.4 mg/ml, and plates returned to the incubator for a further 1 hr. After this time, the medium was aspirated off, 200 μl of DMSO was then added to each well, and plates agitated gently for 5 min before measuring optical density at 540 nm in each well.

A549 cells = test: MTT proliferation assay, 72 hr (Example 6.2); type: cell-based, human; conditions: A549, 72 h, mean ± SD of at least five experiments
Experimental: (§2) The human cancer cell lines; MCF7 (breast), HCT116 (colon) and A549 (lung) (Cancer Research UK, London, UK), were grown in either DMEM (Sigma) or RPMI (Sigma) media supplemented with 10% foetal bovine serum, 2 mM L-glutamine, 1% penicillin/streptomycin.
as §1

MCF7 cells = test: MTT proliferation assay, 72 hr (Example 6.2); type: cell-based, human; conditions: MCF7, 72 h, mean ± SD of at least five experiments
Experimental: as §2, §1

HCT116^norm cells [1] = test: MTT proliferation assay, 72 hr (Example 6.2); type: cell-based, human
Experimental: as §2, §1

HCT116^norm cells [2] = conditions: read-out: concentration required to achieve ~50% cell kill, ART and OXP used simultaneously, ART + OXP combination (ratio 1:2.5)
Description: The combination studies followed an approach previously described (Gordi et al., 2004, Toxicol. Lett. 147: 99-107). HCT116^norm, A549, MCF7 and HCT116^poly cells (5×10^4/well) growing exponentially were reset in fresh culture medium and aliquoted into 96-well plates. ART was the primary drug partner and combined with OXP at an equal ratio of their respective IC50 (eg. ½×IC50 of ART was combined with ½×IC50 of OXP). Fixing this ratio also kept constant the amount of one drug respective to the other. For instance, ART was combined with OXP at a constant ratio of 1:2.5. Cells were incubated for 72 hr in a humidified atmosphere with 5% CO2 in air at 37° C. Cell number was assessed by the MTT assay as described previously. The activities of drug combinations were established by comparing optical density readings from the treated wells with the control wells with no drug treatment, and the natures of drug-drug interactions then assessed by calculating a combination index (CI) by using the median-effect equation, where CI-values of 1 indicated additivity; CI<1 indicated synergy and CI>1 indicated antagonism.

## O=C1[O][Pt]2([NH][C@@H]3CCCC[C@H]3[NH]2)[O]C1=O [Oxaliplatin, oxaliplatin]
HCT116^poly cells
  IC50: 5.8 µM
A549 cells
  IC50: 6.2 ± 0.95 µM
MCF7 cells
  IC50: 6.1 ± 1.1 µM
HCT116^norm cells [1]; 72 h, MTT, mean ± SD of at least five experiments, listed as OXP, read-out: IC50
  IC50: 5.3 µM
HCT116^norm cells [1]; 72 h, MTT, mean ± SD of at least five experiments, read-out: IC50
  IC50: 4.05 ± 1.8 µM
HCT116^norm cells [1]; single agent, read-out: concentration required to achieve ~50% cell kill, used separately
  IC50: 4 µM
HCT116^norm cells [2]
  IC50: 1.6 µM
